The source of these data is US11312680B2, “Method for treating a patient having a colon cancer” (King Abdulaziz University, priority 2019, dated 2022).

Experiment [1] deals with HCT116 colon cancer cells. Put plainly: MTT viability assay against HCT-116 cells. It is filed as cell-based, human. The method, then:
(§1) The KAC compounds were evaluated for antiproliferative effect against HCT-116 and MCF7 cell lines using the MTT viability assay and to calculate the relative IC50 values for each compound. Cells were seeded in triplicate in 96-well plates at a density of 10×10^3 cells/mL in a total volume of 100 μL per well and allowed to adhere overnight. Cells were treated with various concentrations of tested KAC compounds or 0.1% of DMSO (vehicle) for 27 h. Then the medium was discarded and 100 μL per well of MTT (5 mg/mL in PBS) containing medium was added. After incubation at 37° C. for 3 h, the MTT-containing medium was replaced by DMSO (100 μL per well) to dissolve the formazon crystal and incubated for 10 min. Absorbance of the solution was measured by microplate reader at […]. The IC50 values were calculated according to the dose-dependent curves using GraphPad prism, version 5.0. All the experiments were repeated in at least three independent experiments.
In general terms: Formazan colour is commonly taken as a measure of viable cells.

The subject of experiment [2] is MCF7 breast cancer cells. Put plainly: MTT viability assay against MCF7 cells. It is filed as cell-based, human. As to the method: as §1
Experiment [3] concerns HCT-116 cells. The experiment is described as follows: Cell cycle analysis of HCT-116 cells (propidium iodide flow cytometry). It is filed as cell-based, human. The note with it: for cell cycle effect: HCT-116, 24 and 48 hours; for apoptosis: HCT-116, positive controls at 1 μM; for apoptosis / cells in G2/M phase / apoptosis, population in the sub-G1 phase: 48 h; for percentage of cells in G2/M phase: 24 h, control 9.0%; for apoptosis, population in the sub-G1 phase: control 0.9%. The method, then: Flow cytometric analysis was used to determine DNA level in any given cell that has been stained with propidium iodide (PI). PI is a fluorescent DNA intercalating agent which binds stoichiometrically to nucleic acid. When bounded to DNA, its fluorescence intensity increases 20 fold (excitation 488 nm and emission 600 nm). As cells pass singly through a beam of light their cell cycle state is analyzed. The fluorescent intensity of DNA-bound PI correlates to the DNA content of the cell. This allows the cell population in G1 phase (diploid −2n), G2M phase (4n), or S phase (2n-4n) to be differentiated by plotting a histogram of the PI fluorescence versus cell counts (linear scale). G1 and G2M can be seen as distinct peaks, with the S phase shown as the population between these two peaks. Apoptotic cells are hypo-diploid (pre-G1) and have a low PI fluorescence due to DNA fragmentation [Riccardi, C.; Nicoletti, I., Analysis of apoptosis by propidium iodide staining and flow cytometry. Nature protocols 2006, 1 (3), 1458-1461].
To study cell cycle stage, adherent and detached cells were collected by trypsinization and centrifuged at 800×g for 15 min. Cells were washed twice with ice-cold PBS and fixed with slow addition of ice-cold 70% ethanol overnight at −20° C. Fixed cells were centrifuged at 800×g for 15 min and the pellet was re-suspended in 400 μL PBS and transferred to LP5 FACS tubes then stained with 50 μg/mL of PI, containing 50 μg/mL of DNase-free RNase A (to degraded any double strand RNA present), at 37° C. for 30 min. The DNA content of cells (10,000 cells/experimental group) was analyzed by flow cytometer at 488 nm using a FACSCalibur flow cytometer (BD Biosciences, San Jose, Calif.).
In general, G2/M cell cycle arrest is strongly associated with inhibition of tubulin polymerization. The effect of KX-01 analogue, KAC-3, was investigated with colon cancer HCT-116 cells by flow cytometry at two concentrations (5 μM and 10 μM) for 24 and 48 hours. […] The percentage of cells in G2/M phase after 24 h was 13.3% and 41.7% at concentrations of 5 μM and 10 μM, respectively compared to the control (9.0%) (see FIG. 9). […] The cell cycle analysis results for KAC-3 are typical for tubulin targeting agents, which characteristically cause G2/M blockade followed by apoptosis [Perez, E. A., Microtubule inhibitors: Differentiating tubulin-inhibiting agents based on mechanisms of action, clinical activity, and resistance. Molecular cancer therapeutics 2009, 8 (8), 2086-2095]. […] Cancer research and treatment: official journal of Korean Cancer Association 2017, 49 (3), 643-655; and Anbalagan, M.; Carrier, L.; Glodowski, S.; Hangauer, D.; Shan, B.; Rowan, B. G., KX-01, a novel Src kinase inhibitor directed toward the peptide substrate site, synergizes with tamoxifen in estrogen receptor a positive breast cancer. Breast cancer research and treatment 2012, 132 (2), 391-409]. […] Frontiers in pharmacology 2017, 8, 244].
On the technique in general: Flow cytometry measures light scatter and fluorescence of single cells or particles in a stream.

The subject of experiment [4] is N87 stomach cancer cells. Put plainly: MTT cytotoxicity assay against N87 cells. The experiment is classed as cell-based, human. The method, then: Cytotoxicity of all the compounds against N87 cells was determined using MTT assay. Briefly, 25,000 cells suspended in 0.1 mL of cell culture media were added in each well of a 96-well plate. After allowing the cells to attach for 24 h, media was aspirated from all the wells, and different concentrations of anticancer compounds in cell culture media were added to the wells in triplicate. Six wells were incubated with drug free media, and used as control. 96 hours after the treatment, 25 μL of MTT solution (5 mg/mL in phosphate saline buffer, pH 7.4) was added to each well, and the plate was incubated for 4.5 hours at 37° C. in the incubator. After incubation, 100 μL of 10% SDS in 0.01 M hydrochloric acid was added to each well, and the plate was incubated overnight at 37° C. The next day absorbance was determined in each well at 590 nm using a plate reader. IC50 value of each compound was determined using GraphPad Prism.

The test system of experiment [5] is MDA-MB-231 and BT-549 and MDA-MB-468 cells. The note with it: MDA-MB-231, BT-549, MDA-MB-468 cells; literature; cited from earlier work.

The term IC50 denotes the point on the concentration scale where inhibition reaches its midpoint. A higher IC50 goes with weaker potency in that assay.

A value given as a limit tells only on which side of the number the result lay.

As for `O=C(Cc1ccc(NC(=O)c2cccc(Cl)c2)cc1)NCc1ccc(F)cc1` [KAC-16, 3-Chloro-N-(4-(2-((4-fluorobenzyl)amino)-2-oxoethyl)phenyl)benzamide], in experiment [1] (Homo sapiens, HCT-116, 27 h), the IC50 is > 50 µM.

As for `O=C(Cc1ccc(NC(=O)c2ccccc2-c2ccccc2C(=O)N2CCCCC2)cc1)NCc1ccccc1` [KAC-05, N-(4-(2-(benzylamino)-2-oxoethyl)phenyl)-2′-(piperidine-1-carbonyl)-[1,1′-biphenyl]-2-carboxamide], the half-maximal inhibitory concentration (IC50) was > 50 µM in experiment [1] (Homo sapiens, HCT-116, 27 h) and 44.2 µM in experiment [2] (Homo sapiens, MCF7, 27 h).

Consider `Cc1ccc(NC(=O)c2ccc(CN3CCN(C)CC3)cc2)cc1Nc1nccc(-c2cccnc2)n1` [imatinib, reference compound], for which, in experiment [3], the “cell cycle effect” value is “no significant difference in the other cell cycle phases” and the apoptosis was found to be 6.4%.

As to `Cc1ccc(S(=O)(=O)Nc2ccc(CC(=O)NCc3ccccc3)cc2)cc1` [KAC-10, N-benzyl-2-(4-((4-methylphenyl)sulfonamido)phenyl)acetamide], the IC50 in experiment [1] (Homo sapiens, HCT-116, 27 h) was determined as 22.7 µM. This counts as double-digit micromolar.

As for `CCN(CC)C(=O)c1ccccc1C(=O)Nc1ccc(CC(=O)NCc2ccccc2)cc1` [KAC-04, N^1-(4-(2-(benzylamino)-2-oxoethyl)phenyl)-N^2,N^2-diethylphthalamide], the half-inhibitory concentration (IC50) in experiment [4] (Homo sapiens, 96 h) is > 50 µM; in experiment [2] (Homo sapiens, MCF7, 27 h), > 50 µM.

As to `O=C(Cc1ccc(NC(=O)c2ccccc2)cc1)NCc1ccccc1` [KAC-08, N-(4-(2-(benzylamino)-2-oxoethyl)phenyl)benzamide], the half-inhibitory concentration (IC50) in experiment [1] (27 h) was 19.7 µM; in experiment [1] (Homo sapiens, HCT-116, 27 h), 19.7 µM; in experiment [4] (Homo sapiens, 96 h) it was > 50 µM; in experiment [2] (27 h), 2.63 µM; in experiment [2] (Homo sapiens, MCF7, 27 h), 2.6 µM. Moreover, in experiment [4] (96 hours), the “IC50 N87” value is recorded as “much weaker”.

In turn, `O=C(Cc1ccc(NC(=O)c2ccccc2C(=O)N2CCCCC2)cc1)NCc1ccccc1` [KAC-02, N-(4-(2-(benzylamino)-2-oxoethyl)phenyl)-2-(piperidine-1-carbonyl)benzamide] came in with a half-inhibitory concentration (IC50) in experiment [2] (Homo sapiens, MCF7, 27 h) of 9.48 µM.

Regarding `COc1ccc(CNC(=O)Cc2ccc(NC(=O)c3cccc(Cl)c3)cc2)cc1` [KAC-15, 3-Chloro-N-(4-(2-((4-methoxybenzyl)amino)-2-oxoethyl)phenyl)benzamide], in experiment [1] (Homo sapiens, HCT-116, 27 h), the IC50 is > 50 µM.

Regarding `O=C(Cc1ccc(-c2ccc(OCCN3CCOCC3)cc2)cn1)NCc1ccccc1` [KX-01], the “cell cycle effect” value in experiment [5] was “induced significant G2M phase arrest”.

Turning to `CCN(CC)C(=O)c1ccccc1-c1ccccc1C(=O)Nc1ccc(CC(=O)NCc2ccccc2)cc1` [KAC-07, N^2-(4-(2-(benzylamino)-2-oxoethyl)phenyl)-N^2′,N^2′-diethyl-[1,1′-biphenyl]-2,2′-dicarboxamide], the IC50 in experiment [4] (Homo sapiens, 96 h) was > 50 µM; in experiment [2] (Homo sapiens, MCF7, 27 h), > 50 µM.

Take `O=C(Cc1ccc(NC(=O)c2cccc(Cl)c2)cc1)NCc1ccco1` [KAC-18, 3-Chloro-N-(4-(2-((furan-2-ylmethyl)amino)-2-oxoethyl)phenyl)benzamide]: in experiment [1] (Homo sapiens, HCT-116, 27 h), half-maximal inhibition (IC50) was put at 23.9 µM. This lies in the double-digit micromolar range.

Take `CCC(=O)Nc1ccc(CC(=O)NCc2ccccc2)cc1` [KAC-09, N-(4-(2-(benzylamino)-2-oxoethyl)phenyl)propionamide]: the IC50 in experiment [1] (Homo sapiens, HCT-116, 27 h) is > 50 µM; in experiment [4] (96 hours), 7.24 µM; in experiment [4] (Homo sapiens, 96 h) it was 7.2 µM; in experiment [2] (27 h) it was 37 µM; in experiment [2] (Homo sapiens, MCF7, 27 h), 37 µM.

The compound `O=C(Cc1ccc(NC(=O)c2cccc(Cl)c2)cc1)NCCc1ccccc1` [KAC-17, 3-Chloro-N-(4-(2-oxo-2-(phenethylamino)ethyl)phenyl)benzamide] returned a half-inhibitory concentration (IC50) in experiment [1] (Homo sapiens, HCT-116, 27 h) of 25.9 µM.

Regarding `O=C(Cc1ccc(NC(=O)c2ccccc2C(=O)N2CCOCC2)cc1)NCc1ccccc1` [KAC-03, N-(4-(2-(benzylamino)-2-oxoethyl)phenyl)-2-(morpholine-4-carbonyl)benzamide], the IC50 in experiment [1] (27 h) was 4.76 µM; in experiment [1] (Homo sapiens, HCT-116, 27 h), 4.8 µM; in experiment [4] (Homo sapiens, 96 h), 18.2 µM; in experiment [2] (Homo sapiens, MCF7, 27 h), 3.5 µM. For the same compound, the “percentage of cells in G2/M phase” value was found to be 13.3% in experiment [3] (HCT-116, 5 μM) and 41.7% in experiment [3] (HCT-116, 10 μM). For the same compound, the “cells in G2/M phase” value is recorded as 30.7% in experiment [3] (HCT-116, 5 μM) and 32.8% in experiment [3] (HCT-116, 10 μM). Further, the “apoptosis, population in the sub-G1 phase” value came out at 8.7% in experiment [3] (HCT-116, 5 μM) and 11.6% in experiment [3] (HCT-116, 10 μM). Further, the “cell cycle effect” value in experiment [3] is “significant G2/M arrest in a time- and concentration-dependent manner”.

As for `CC(=O)Nc1ccc(CC(=O)NCc2ccccc2)cc1` [KAC-01, 2-(4-acetamidophenyl)-N-benzylacetamide], the IC50 in experiment [1] (27 h) was 18.8 µM; in experiment [1] (Homo sapiens, HCT-116, 27 h) it was 18.8 µM; in experiment [4] (Homo sapiens, 96 h), > 50 µM; in experiment [2] (Homo sapiens, MCF7, 27 h), 29.3 µM.

For `O=C(Cc1ccc(NC(=O)c2ccccc2-c2ccccc2C(=O)N2CCOCC2)cc1)NCc1ccccc1` [KAC-06, N-(4-(2-(benzylamino)-2-oxoethyl)phenyl)-2′-(morpholine-4-carbonyl)-[1,1′-biphenyl]-2-carboxamide], the concentration for half-maximal inhibition (IC50) was 30.6 µM in experiment [1] (Homo sapiens, HCT-116, 27 h); > 50 µM in experiment [4] (Homo sapiens, 96 h); 34.9 µM in experiment [2] (Homo sapiens, MCF7, 27 h).

On to `CC(=O)O[C@H]1C(=O)[C@@]2(C)[C@H]([C@H](OC(=O)c3ccccc3)[C@]3(O)C[C@H](OC(=O)[C@H](O)[C@@H](NC(=O)c4ccccc4)c4ccccc4)C(C)=C1C3(C)C)[C@]1(OC(C)=O)CO[C@@H]1C[C@@H]2O` [Paclitaxel, reference compound], for which, in experiment [3], the “cell cycle effect” value is “no significant difference in the other cell cycle phases” and the apoptosis is 7.7%.
